According to patent US9763445B2, “Safened herbicidal compositions comprising a pyridine carboxylic acid herbicide” (Dow AgroSciences, LLC, priority 2014, dated 2017):

Assays:
spring wheat (TRZAS) = assay: Postemergence greenhouse trial, % visual injury on spring wheat; format: in vivo, Triticum aestivum; details: TRZAS; for % visual injury, Ob: CQC-m 0 g/ha
Outline: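 Injury was scored visually (0 = none, 100 = complete kill) 20–22 d after track-sprayer application at 187 L/ha, compared with solvent-sprayed controls. Test plants at the 2–3 true leaf stage; herbicide (g ae/ha) plus cloquintocet-mexyl safener (g ai/ha) in crop-oil-containing spray; expected mixture response by Colby.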

winter rape (BRSNW) = assay: Postemergence greenhouse trial, % visual injury on winter rape; format: in vivo, Brassica napus; details: BRSNW, CQC-m 0 g/ha
Outline: (§1)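 Visual injury, 0 (none) to 100 (complete kill), rated 20-22 d after overhead track-sprayer application at 187 L/ha; Colby's equation gave expected mixture responses. Herbicide (g ae/ha) and cloquintocet-mexyl safener (g ai/ha) diluted in aqueous 1.5% v/v Agri-dex, applied to weeds at 2–3 true leaves.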

common poppy (PAPRH) = assay: Postemergence greenhouse trial, % visual injury on common poppy; format: in vivo, Papaver rhoeas; details: PAPRH; for % visual injury, Ob: CQC-m 0 g/ha
Description: Seeds of the desired test plant species were planted in Sun Gro MetroMix® 306 planting mixture, which typically has a pH of 6.0 to 6.8 and an organic matter content of about 30 percent, in plastic pots with a surface area of 103.2 square centimeters (cm^2). When required to ensure good germination and healthy plants, a fungicide treatment and/or other chemical or physical treatment was applied. The plants were grown for 7-36 days (d) in a greenhouse with an approximate 14-hour (h) photoperiod which was maintained at about 23° C. during the day and 22° C. during the night. Nutrients and water were added on a regular basis and supplemental lighting was provided with overhead metal halide 1000-Watt lamps as necessary. The plants were employed for testing when they reached the second or third true leaf stage.
Weighed amounts of technical material were dissolved in a volume of 97:3 volume per volume (v/v) acetone/dimethyl sulfoxide (DMSO) to stock solutions. […] The concentrated stock solutions were diluted with an aqueous mixture of 1.5% v/v of Agri-dex crop oil concentrate to provide the appropriate application rates. Compound requirements are based upon a 12 milliliter (mL) application volume at a rate of 187 liters per hectare (L/ha). Stocks solutions of the safeners were prepared following the same procedure. Spray solutions of the safeners and experimental compound mixtures were prepared by adding the stock solutions to the appropriate amount of dilution solution to form a 12 mL spray solution in two-way combinations. Formulated compounds were applied to the plant material with an overhead Mandel track sprayer equipped with 8002E nozzles calibrated to deliver 187 L/ha over an application area of 0.503 square meters (m^2) at a spray height of 18 inches (43 centimeters (cm)) above average plant canopy. Control plants were sprayed in the same manner with the solvent blank. All herbicide application (component a) rates are in g ae/ha and all safener (component b) rates are in g ai/ha.
The treated plants and control plants were placed in a greenhouse as described above and watered by sub-irrigation to prevent wash-off of the test compounds. After 20-22 d, the condition of the test plants as compared with that of the control plants was determined visually and scored on a scale of 0 to 100 percent where 0 corresponds to no injury and 100 corresponds to complete kill. […] Colby's equation was used to determine the herbicidal effects expected from the mixtures. […]

lambsquarters (CHEAL) = assay: Postemergence greenhouse trial, % visual injury on lambsquarters; format: in vivo, Chenopodium album; details: CHEAL
Outline: as §1

[1] = compound 8 4.380 + CQC-m 0 g/ha

Row | Structure (SMILES) | % visual injury, Ob (spring wheat (TRZAS); compound 4.375 g/ha) | % visual injury, Ob (spring wheat (TRZAS); compound 8.75 g/ha) | % visual injury, Ob (spring wheat (TRZAS); compound 17.5 g/ha) | % visual injury, Ob (spring wheat (TRZAS); compound 35 g/ha) | % visual injury, Ob (spring wheat (TRZAS); compound 70 g/ha) | % visual injury, Ob (winter rape (BRSNW); compound 4.375 g/ha) | % visual injury, Ob (winter rape (BRSNW); compound 8.75 g/ha) | % visual injury, Ob (winter rape (BRSNW); compound 17.5 g/ha) | % visual injury, Ob (winter rape (BRSNW); compound 35 g/ha) | % visual injury, Ob (winter rape (BRSNW); compound 70 g/ha) | % visual injury, Ob (common poppy (PAPRH); compound 4.375 g/ha) | % visual injury, Ob (common poppy (PAPRH); compound 8.75 g/ha) | % visual injury, Ob (common poppy (PAPRH); compound 17.5 g/ha) | % visual injury, Ob (common poppy (PAPRH); compound 35 g/ha) | also measured
1 | Nc1cc(-c2ccc3cc[nH]c3c2F)nc(C(=O)O)c1Cl [compound 15] | 0% | 10% | 15% | 20% | 25% | 40% | 40% | 50% | 70% | 60% | 90% | 100% | 100% | 100% | –
2 | COc1c(C(=O)O)nc(-c2ccc3cc[nH]c3c2F)c(F)c1N [compound 13] | 40% | 53% | 67% | 80% | 87% | 100% | 100% | 100% | 100% | 100% | 90% | 100% | 100% | 100% | % visual injury, Ob (common poppy (PAPRH); compound 70 g/ha): 100%
3 | COC(=O)c1nc(-c2ccc3cc[nH]c3c2F)c(F)c(N)c1Cl [compound 8] | – | – | – | – | – | – | – | – | – | – | – | – | – | – | % visual injury, observed (Ob) (spring wheat (TRZAS); [1]): 7%; % visual injury, observed (Ob) (spring wheat (TRZAS); compound 8 8.75 + CQC-m 0 g/ha): 11%; % visual injury, observed (Ob) (spring wheat (TRZAS); compound 8 17.5 + CQC-m 0 g/ha): 35%; % visual injury, observed (Ob) (spring wheat (TRZAS); compound 8 35 + CQC-m 0 g/ha): 48%; % visual injury, observed (Ob) (spring wheat (TRZAS); compound 8 70 + CQC-m 0 g/ha): 60%; % visual injury, observed (Ob) (lambsquarters (CHEAL); [1]): 86%; % visual injury, observed (Ob) (lambsquarters (CHEAL); compound 8 8.75 + CQC-m 0 g/ha): 92%; % visual injury, observed (Ob) (lambsquarters (CHEAL); compound 8 17.5 + CQC-m 0 g/ha): 99%; % visual injury, observed (Ob) (lambsquarters (CHEAL); compound 8 35 + CQC-m 0 g/ha): 100%; % visual injury, observed (Ob) (lambsquarters (CHEAL); compound 8 70 + CQC-m 0 g/ha): 100%; % visual injury, observed (Ob) (common poppy (PAPRH); [1]): 97%; % visual injury, observed (Ob) (common poppy (PAPRH); compound 8 8.75 + CQC-m 0 g/ha): 99%; % visual injury, observed (Ob) (common poppy (PAPRH); compound 8 17.5 + CQC-m 0 g/ha): 100%; % visual injury, observed (Ob) (common poppy (PAPRH); compound 8 35 + CQC-m 0 g/ha): 100%; % visual injury, observed (Ob) (common poppy (PAPRH); compound 8 70 + CQC-m 0 g/ha): 100%
